For this experiment, the system named is immobilized GST-tagged bait protein domains. The experiment can be described thus: ProP-PD phage selections (HD2 P8, sublibraries, HD2 P3, HD1 P8) with NGS and confidence level. The class given is binding, human.
Where [1] appears, read: bait CRK_SH3_1_P46108_124_198, library HD2, benchmarking set of validated motif instances, TRUE = motif instance recovered in the ProP-PD selection.
The mark [2] stands for this setting: HD2 library, bait SUMO1_SUMO__P63165_1_101, known motif instance of the benchmarking set found (TRUE) or not found (FALSE) among selected peptides.
Setting [3] is: HD2 library, bait TNKS_TANK-peptide-bind__O95271_174_649, known motif instance of the benchmarking set found (TRUE) or not found (FALSE) among selected peptides.
The mark [4] stands for this setting: bait OXSR1___O95747_434_527, HD2 library, confidence level (1-4) of best matching selected peptide.
[5] abbreviates: bait OXSR1___O95747_434_527, HD2 library, specificity score of best matching selected peptide.
The mark [6] stands for this setting: bait OXSR1___O95747_434_527, HD2 library, whether the validated benchmark motif instance was recovered in the ProP-PD selection (TRUE/FALSE).
Setting [7] is: bait ANKRA2_Ank__Q9H9E1_142_313, library HD.
Where [8] appears, read: bait ANKRA2_Ank__Q9H9E1_142_313, library HD, mean normalised NGS counts.
[9] abbreviates: bait ANKRA2_Ank__Q9H9E1_142_313, library HD, mean raw NGS counts, all selections.
Where [10] appears, read: library HD2, bait EPS15_EH__P42566_121_215, best matching peptide.
[11] abbreviates: library HD2, bait EPS15_EH__P42566_121_215, confidence level of best matching peptide (4 High, 2-3 Medium, 1 Low).
[12] abbreviates: library HD2, bait EPS15_EH__P42566_121_215, whether the validated benchmark motif instance was recovered in the ProP-PD selection (TRUE/FALSE).
The mark [13] stands for this setting: library HD2, bait YAP1_WW_1_P46937_169_207, validated benchmark motif instance, in_library_check TRUE, TRUE/FALSE = instance recovered in ProP-PD selection.
The mark [14] stands for this setting: bait PABP-B_PABP__P11940_544_623, HD2 library, whether the validated benchmark motif instance was recovered in the ProP-PD selection (TRUE/FALSE).

Take SVEFLDLAHSSESQETISS: the motif_found entry (library HD2, bait USP7_MATH-TRAF__Q93009_53_206, validated benchmark motif instance, in_library_check TRUE, TRUE/FALSE = instance recovered in ProP-PD selection) is “FALSE”.
SVVSPPELPPRNIPLT showed an HD confidence (bait CRK_SH3_1_P46108_124_198, library HD) of 2. The substance also came in with an HD2 confidence (bait CRK_SH3_1_P46108_124_198, library HD2 P8) of 4. This substance also showed an HD2_cytoplasm confidence (bait CRK_SH3_1_P46108_124_198, library HD2 P8 cytoplasm) of 4. Where the note is “bait CRK_SH3_1_P46108_124_198, library HD2 P8 nucleocytoplasmic”, this substance yielded an HD2_nc confidence of 2. The substance also yielded an HD2_nc count proportions (bait CRK_SH3_1_P46108_124_198, library HD2 P8 nucleocytoplasmic, mean normalised NGS counts) of 6.106e-06. Where the note is “bait CRK_SH3_1_P46108_124_198, library HD2 P8 nucleocytoplasmic, mean raw NGS counts, all selections”, this substance had an HD2_nc mean counts of 1.0. Also, where the note is “bait CRK_SH3_1_P46108_124_198, library HD, mean normalised NGS counts”, the HD count proportions is 0.0001782. For the same substance, for the setting “bait CRK_SH3_1_P46108_124_198, library HD, mean raw NGS counts, all selections”, the HD mean counts worked out at 3.0.
SWVAFAHTGAWGTGLP registered an HD2 confidence (bait AP2B1_adaptin__P63010_700_937, HD2 P8 selection, non primary paralogue peptide match, confidence level -4 to 4: 4 = High, 3 or 2 = Medium, 1 = Low, 0 = Filtered/Noise) of 4.
On to “TDEVPVPPPVPPRRRPESAP,DEVPVPPPVPPRRRPESAPA [SOS1]”, for which, under setting [1], the motif_found result is “FALSE”.
Take TDYRPPDDAVFDIITDEELCQ: the motif_found entry (bait MAP1LC3B_ATG8 (Q9GZQ8 2-119), HD2 library, benchmark motif instance recovered in the ProP-PD selection (TRUE/FALSE)) is “FALSE”.
Consider TFNSYRKEWEELFVNNNYL [TBC1D5 58-62], for which the motif_found result (HD2 library, bait MAP1LC3A_ATG8__Q9H492_2_121, benchmark motif instance, in_library_check FALSE, in_library_coverage 0) is reported as “FALSE” and the motif_found entry (HD2 library, bait MAP1LC3B_ATG8__Q9GZQ8_2_119, benchmark motif instance, in_library_check FALSE, in_library_coverage 0) was “FALSE”.
TGQPTKVGRFQVTTTA: the HD2_cytoplasm confidence (bait OXSR1___O95747_434_527, HD2 P8 cytoplasm sublibrary, confidence level (4 = High, 2-3 = Medium, 1 = Low)) was determined as 4.
In the case of THHNQASDIIVISSEDSEGSTDVDE, the motif_found result under setting [2] is “FALSE”.
For the substance TKSTVTGERQSGDGQESTEPVE, under setting [3], the motif_found result is listed as “FALSE”.
Under setting [4], TKVGRFQVTTTANKVG returned a best_confidence of 4. Further, the best_specificity under setting [5] is listed as 1. For the same substance, under setting [6], the motif_found result is “TRUE”.
The substance TLALPSLVPQNYTENK came in with an HD confidence under setting [7] of 2. Besides, under setting [8], the HD count proportions is on record as 0.0001017. This substance also yielded an HD mean counts under setting [9] of 1.75.
For the substance TLDDSDEDVILVESQDPPLPS, the motif_found result under setting [2] was “FALSE”.
With TLVSPKLPSLEAPTSA, the HD2 confidence (bait ANKRA2_Ank__Q9H9E1_142_313, HD2 P8 selection, confidence level -4 to 4: 4 = High, 3 or 2 = Medium, 1 = Low, 0 = Filtered/Noise) is listed as 3.
With “TNAYKLPLAVGPPSLNYIPPVLQLS,LAVGPPSLNYIPP [TEX14]”, the motif_found result (bait CEP55_EABR__Q53EZ4_160_217, library HD2, benchmarking set of validated motif instances, TRUE = motif instance recovered in the ProP-PD selection) is “TRUE”.
Regarding TNGAMNVEIGNPTYKMYEGGEP, the motif_found result (HD2 library, bait TLN1_PTB__Q9Y490_309_401, known motif instance of the benchmarking set found (TRUE) or not found (FALSE) among selected peptides) is “FALSE”.
As to TNLYWPGTAEPLLVSS, where the note is “library HD, bait AP2B1_adaptin__P63010_700_937, ProP-PD peptides with disease-related mutations”, the confidence amounted to 2.
In the case of TNPFLNETLQDVQPSP, the best_specificity under setting [10] came to 1. Also, the best_confidence under setting [11] was 4. Further, the motif_found result under setting [12] is listed as “TRUE”.
Substance TNPFQPAPPATLTLNQ had a best_specificity under setting [10] of 1. Under setting [11], the best_confidence worked out at 4. Further, the motif_found result under setting [12] is “TRUE”.
Regarding TPDSRRVARPPPIGAEVPDVTA, the motif_found entry under setting [3] is recorded as “FALSE”.
Take TPGAALSWQAAIDAARQAKLMG [CACNA1C]: for the setting “bait CALM1_EF-hand__P0DP23_2_149, library HD2, benchmarking set of validated motif instances, TRUE = motif instance recovered in the ProP-PD selection”, the motif_found entry is “FALSE”.
For the substance TPPGAKASNPFLPGGGPAT, under setting [12], the motif_found entry was “FALSE”.
With TPPPPYTVAPGRPLTA, the best_confidence (library HD2, bait YAP1_WW_1_P46937_169_207, confidence level of best matching selected peptide (4 High, 2-3 Medium, 1 Low)) turned out to be 4. For the setting “library HD2, bait YAP1_WW_1_P46937_169_207, specificity score of best matching selected peptide”, the best_specificity is 1. In addition, under setting [13], the motif_found result is “TRUE”.
Take TPSYSISSTLNPQAPEFILGCTASKIT: the motif_found result under setting [14] is reported as “FALSE”.
Regarding TPYTAYPPPAQAYGIP, the HD2_nc confidence (bait CEP55_EABR__Q53EZ4_160_217, HD2 P8 nucleocytoplasmic sublibrary, confidence level (4 = High, 2-3 = Medium, 1 = Low)) is given as 4. This substance displayed an HD2_nc mean counts (bait CEP55_EABR__Q53EZ4_160_217, HD2 P8 nucleocytoplasmic sublibrary, mean NGS counts over replicate selections) of 482.0. For the setting “bait CEP55_EABR__Q53EZ4_160_217, HD2 P8 nucleocytoplasmic sublibrary, mean proportion of NGS counts”, this substance registered an HD2_nc count proportions of 0.008703.
Take TQRSKPQPAVPPRPSADLIL [NCF1]: under setting [1], the motif_found result is reported as “FALSE”.
Take TQVPGTPPPKYNTLRLER: the motif_found result is, setting by setting: (bait NEDD4_WW_4_P46934_890_928, HD2 library, whether the validated benchmark motif instance was recovered in the ProP-PD selection (TRUE/FALSE)) “FALSE”; under setting [13], “FALSE”.
With TRKKTFKEVANAVKISASLMGT, where the note is “library HD2, bait CALM1_EF-hand__P0DP23_2_149, motif instance NOT in library (in_library_check FALSE, in_library_coverage 0)”, the motif_found entry is recorded as “FALSE”.
Consider TSNNRLLNKRRKKQAGSSSA, for which the motif_found result (bait KPNA4_Arm (O00629 68-487), HD2 library, benchmark motif instance recovered in the ProP-PD selection (TRUE/FALSE)) is reported as “FALSE”.
For TTTANKVGRFSVSKTE, under setting [4], the best_confidence worked out at 2. Under setting [5], the best_specificity came out at 1. Besides, the motif_found result under setting [6] is “TRUE”.
As for TVNNCAQDRESPDGSYTEEQSQ, under setting [3], the motif_found entry is “FALSE”.
Take VDLTHNDSVVIVDERRRPRRN: under setting [2], the motif_found entry was “FALSE”.
Turning to VDPSTGELQSLQMPES, for the setting “library HD2, bait Keap1_KELCH__Q14145_321_609, best matching peptide”, the best_specificity is recorded as 1. The best_confidence (library HD2, bait Keap1_KELCH__Q14145_321_609, confidence level of best matching peptide (4 High, 2-3 Medium, 1 Low)) was 3. Also, the motif_found entry (library HD2, bait Keap1_KELCH__Q14145_321_609, whether the validated benchmark motif instance was recovered in the ProP-PD selection (TRUE/FALSE)) was “TRUE”.
The substance VEEEWVIVSDEEIEEA had an HD2_endomembrane confidence (bait MAP1LC3A_ATG8__Q9H492_2_121, HD2 P8 endomembrane sublibrary, confidence level (4 = High, 2-3 = Medium, 1 = Low)) of 4.
In turn, VEVIDLTIESSSDEED showed a best_confidence (bait SUMO1_SUMO__P63165_1_101, HD2 library, confidence level (1-4) of best matching selected peptide) of 4. In addition, the best_specificity (bait SUMO1_SUMO__P63165_1_101, HD2 library, specificity score of best matching selected peptide) was 1. Moreover, the motif_found entry (bait SUMO1_SUMO__P63165_1_101, HD2 library, whether the validated benchmark motif instance was recovered in the ProP-PD selection (TRUE/FALSE)) is “TRUE”.
The substance VFPRPVLPSLTVSRVI registered an HD2 confidence (bait ANKRA2_Ank__Q9H9E1_142_313, library HD2 P8) of 4. This substance also returned an HD2_nc confidence (bait ANKRA2_Ank__Q9H9E1_142_313, library HD2 P8 nucleocytoplasmic) of 3. For the setting “bait ANKRA2_Ank__Q9H9E1_142_313, library HD2 P8 nucleocytoplasmic, mean normalised NGS counts”, this substance registered an HD2_nc count proportions of 0.003084. This substance also displayed an HD2_nc mean counts (bait ANKRA2_Ank__Q9H9E1_142_313, library HD2 P8 nucleocytoplasmic, mean raw NGS counts, all selections) of 216.6.
For VGDTSRGQVIIISDSDDDDDERILSLEK, the motif_found entry under setting [2] is listed as “FALSE”.
Under setting [4], VGRFQVTSSKEPAEPL showed a best_confidence of 4. This substance gave a best_specificity under setting [5] of 1. Further, the motif_found result under setting [6] was “TRUE”.
Take VGSQADTNVIDLTGDDKDDL: the motif_found entry under setting [2] is listed as “FALSE”.
Same read-out and setting: then VIGSADCNVIEIDDTLDDSDED, with “FALSE”.
Consider VLGDQRRPSLPALHFIKGAGKK, for which, under “library HD2, bait ANKRA2_Ank__Q9H9E1_142_313, motif instance NOT in library (in_library_check FALSE, in_library_coverage 0)”, the motif_found entry is “FALSE”.
VMSLPKLQQVPGLHPQ: the HD confidence under setting [7] stood at 3. Under setting [8], this substance registered an HD count proportions of 0.003008. The substance further showed an HD mean counts under setting [9] of 34.0.
Take VPNVHAAEFVPSFLRG: the best_confidence (bait PABP-B_PABP__P11940_544_623, HD2 library, confidence level (1-4) of best matching selected peptide) is listed as 4. The substance also yielded a best_specificity (bait PABP-B_PABP__P11940_544_623, HD2 library, specificity score of best matching selected peptide) of 1. Further, under setting [14], the motif_found entry is listed as “TRUE”.
Regarding VPSPASLWPPPPSPAPSST, the motif_found entry (library HD2, bait VASP_EVH1__P50552_1_114, validated benchmark motif instance, in_library_check TRUE, TRUE/FALSE = instance recovered in ProP-PD selection) is given as “FALSE”.

The record behind these values is paper PMC8769072, “Proteome‐scale mapping of binding sites in the unstructured regions of the human proteome” (Molecular Systems Biology, 2022).
